From patent US9096581B2, “Fluoroethyl thiamine or salts thereof and application thereof in preparation of anticoccidial drugs” (GUANGZHOU ORIGMOL FEED-ADDITIVE CO., LTD, priority 2012, dated 2015)
Entries after “also recorded” stand apart in the source; their conditions may differ. Structures can show the parent of a compound that is named as a salt.

How the values were obtained:
Format in all cases: in vivo
[1] = test system: Eimeria tenella GD strains; assay: Comparison with other anticoccidial drugs in chickens infected with Eimeria tenella GD (Embodiment 3); design: oocyst value: scale not given here; conditions: for anticoccidial index (ACI) / number of oocysts in cecum / lesion value / survival rate / average weight gain / bloody feces scoring / oocyst value / relative weight gain rate: 125 ppm in feed; for number of oocysts in cecum / lesion value / average weight gain: 7th day; for lesion value: cecum, scale 0-40; for survival rate / average weight gain / bloody feces scoring: chickens; for bloody feces scoring: 5 days after infecting, score 0-4; for oocyst value: converted per Table 2; for relative weight gain rate: vs non-infected non-drug control
Excerpt: 1-day-old Lingnan yellow chickens, purchased from Poultry Research Unit, Bureau of Animal Husbandry, Guangdong Academy of Agricultural Sciences, bred under coccidium-free environment, and subjected to experiment after no coccidium oocyst is found in feces through microscopic examination when the chickens are 14 days old. Perfect compound feed for chickens: prepared by Huizhou Yuantai Feed Co. Ltd., and containing no antibacterial or anticoccidial additive.
Eimeria tenella GD strains, having no resistance to various anticoccidial drugs. Breeding and amplifying in one chicken before the experiment, collecting fresh oocysts, sporulating, and preserving at 4° C. for later use.
(§1) Weighing the 14-day-old experiment chickens one by one, rejecting emaciated chickens or overweighted chickens, selecting healthy chickens of which the individual body weight difference is within 20 g, and dividing into 6 groups with 30 chickens in each group. Groups 1 and 2 are respectively a non-drug-applied and non-coccidium-killed control group and a coccidium-infected and non-drug-applied control group, and Groups 3-6 are respectively added with different anticoccidial drugs according to Table 4. Feeding with feed containing different drugs on the day of experiment grouping, enabling the chickens to freely take in the feed, and feeding the chickens until the experiment ends.
(§2) Except the non-coccidium-infected and non-drug-applied control group, giving each experiment chicken in each experiment group with 2.5×10^5 eimeria tenella sporulated oocysts via the crop on next day of the grouping day. During experiment, observing and recording the spirit, appetite, bloody feces situation, death count and the like of the chickens every day. Performing bloody feces scoring on the chickens in each group 5 days after infecting. On the 7th day, respectively weighing all the chickens in each group, then autopsying them, observing cecum lesions and counting the oocysts in the cecum.
(§3) The evaluation standard is the same with Embodiment 2.

[2] = test system: Eimeria tenella JM strains (amprolium-resistant); assay: Effect on amprolium-resistant coccidium strain in chickens (Embodiment 4); conditions: 125 ppm in feed; for number of oocysts in cecum / lesion value / the average weight gain: 7th day; for lesion value: cecum, scale 0-40; for survival rate / the average weight gain / bloody feces scoring: chickens; for bloody feces scoring: 5 days after infecting, score 0-4; for oocyst value: converted per Table 2; for relative weight gain rate: vs non-infected non-drug control
Protocol: (§4) 1-day-old Lingnan yellow chickens, purchased from Poultry Research Unit, Bureau of Animal Husbandry, Guangdong Academy of Agricultural Sciences, bred under coccidium-free environment, and subjected to grouping and experiment after no coccidium oocyst is found in feces through microscopic examination when the chickens are 14 days old.
Eimeria tenella JM strains, separated and purified from a chicken farm in Jiangmen, Guangdong, which are tested and identified to be amprolium-resistant coccidium strains. Breeding and amplifying in chickens before the experiment, collecting fresh eggs, sporulating, and preserving at 4° C. for later use.
as §1, with “4” for “6”, “3 and 4” for “3-6”, “fluoroethyl thiamine hydrochloride and amprolium.” for “different anticoccidial drugs according to Table 4.”, “grouping according to Table 6,” for “grouping,”
as §2, with “group with 1.0×10^5 eimeria tenella” for “group with 2.5×10^5 eimeria tenella”, “crop on the next day” for “crop on next day”
as §3

[3] = test system: Eimeria acervulina HT; assay: Anticoccidial effect on Eimeria acervulina in chickens (Embodiment 5); conditions: 125 ppm in feed; for average weight gain / number of oocysts in feces: 7th day after infecting; for survival rate: chickens; for relative decrement rate of oocysts: vs infected non-drug control; for relative weight gain rate: vs non-infected non-drug control
Excerpt: as §4
Eimeria acervulina HT, having no resistance to various anticoccidial drugs. Breeding and amplifying in chickens before the experiment, collecting fresh eggs, sporulating, and preserving at 4° C. for later use.
Weighing the 14-day-old experiment chickens one by one, rejecting emaciated chickens or overweighted chicks, selecting healthy chickens of which the individual body weight difference is within 20 g, and dividing to 4 groups with 30 chickens in each group. Groups 1 and 2 are respectively a non-drug-applied and non-coccidium-killed control group and a coccidium-infected and non-drug-applied control group, and Groups 3 and 4 are added with fluoroethyl thiamine hydrochloride or amprolium according to Table 8. Feeding with feed containing different drugs on the day of experiment grouping, enabling the chickens to freely take in the feed, and feeding the chickens until the experiment ends.
Except the non-coccidium-infected and non-drug-applied control group, giving each experiment chicken in each experiment group with 5×10^5 eimeria acervulina sporulated oocysts via the crop on the next day of the grouping day. During experiment, observing and recording the spirit, appetite, bloody feces situation, death count and the like of the chickens every day. On the 7th day after infecting, respectively weighing each group, calculating the relative weight gain rate, simultaneously collecting feces samples, and counting the number of oocysts per gram of feces.
2.3.1 Weight gain: respectively weighing each chicken when the experiment starts and ends, and calculating the average weight gain and relative weight gain rate. The relative weight gain rate=(the average weight gain in the experiment groups/the average weight gain in the non-infected and non-drug-applied control group)×100%.
2.3.2 Survival rate: recording the number of dead chickens of each group, autopsying to determine the death cause, and calculating the survival rate. The survival rate=(the total number of the chickens in the experiment groups−the number of the chickens dying of coccidium infection during the experiment)/the total number of the chickens in the experiment groups×100%.
2.3.3 oocyst counting and relative decrement rate of oocysts: on the 7th day after coccidium infection, digesting the collected fresh feces with 10% sodium hypochlorite for 15 min, counting the number of the coccidium oocysts per gram of feces through a blood counting chamber, and calculating the relative decrement rate of the oocysts in the feces of each experiment group. The relative decrement rate of oocysts=(the number of the oocysts per gram of feces in the coccidium-killed and non-drug-applied control group−the number of the oocysts per gram of feces in the experiment groups)/the number of the oocysts per gram of feces in the coccidium-killed and non-drug-applied control group×100%.

SMILES	anticoccidial index (ACI) [1]	number of oocysts in cecum [1]	lesion value [1]	survival rate [1]	average weight gain [1]	bloody feces scoring [1]	oocyst value [1]	relative weight gain rate [1]	anticoccidial index (ACI) [2]	effect on amprolium-resistant strain, in words [2]	number of oocysts in cecum [2]	lesion value [2]	survival rate [2]	the average weight gain [2]	bloody feces scoring [2]	oocyst value [2]	relative weight gain rate [2]	average weight gain [3]	number of oocysts in feces [3]	survival rate [3]	further results
CCc1ncc(C[n+]2csc(CCF)c2C)c(N)n1 [fluoroethyl thiamine hydrochloride, 3-[(4-amino-2-ethyl-5-pyrimidyl)-methylene]-5-(2-fluoroethyl)-4-methyl thiazole chloride hydrochloride]	201.6	0 ×10^6/chicken	0	100%	175.6 g/chicken	0	0	101.6%	196.8	can protect the experiment chickens from being infected by the strains	0 ×10^6/chicken	0	100%	182.7 g/chicken	0	0	96.8%	186.5 g	6500 g⁻¹	100%	comparison with the other anticoccidial drugs ([1]; 125 ppm in feed (maduramicin 5 ppm), hydrochloride): superior to amprolium and maduramicin in lesion and oocyst value; also recorded: superior to nicarbazin in weight gain; inhibition of eimeria acervulina, in words ([3]; hydrochloride): significant inhibition effect on the eimeria acervulina; also recorded: superior to amprolium in eimeria acervulina inhibition; relative decrement rate of oocysts [3]: 97.6%; relative weight gain rate [3]: 96.7%
CCCc1ncc(C[n+]2ccccc2C)c(N)n1 [amprolium, Amprolium, reference compound]	191.2	0.566 ×10^6/chicken	4	100%	166.3 g/chicken	0	1	96.2%	93.5	eimeria tenella JM strain has resistance to amprolium	2.878 ×10^6/chicken	28.4	60%	135.6 g/chicken	4	10	71.9%	166.6 g	29800 g⁻¹	100%	relative decrement rate of oocysts [3]: 88.8%; relative weight gain rate [3]: 86.4%
